The test system of data set [1] is Human pancreatic adenocarcinoma cell BxPC-3 cell. Nature of the data set: In-vitro inhibition of tumor cell proliferation (3H-TdR, 72 h), normal oxygen and hypoxic. Type of data set: cell-based. To be noted: Homo sapiens, BxPC-3, 72 h.
Data set [2] has as its system Human liver cancer HepG2 cell. Described as above. Type of data set: cell-based. To be noted: HepG2, 72 h. The method, then:
(§1) Take tumor cells in the logarithmic growth phase, add 0.25% pancreatin for digestion for 3 min, use RPMI-1640 containing 10% calf serum for suspension culture of the cells, count the number, adjust cell concentration to 1×10^5 cells/mL, inoculate to a Top-count dedicated 96-well cell culture plate at 100 μL/well, and incubate at 37° C. and 5% CO2 for 24 h; divide the cells into experimental groups and control groups, and add a target compound solution (0.001 μg/mL, 0.01 μg/mL, 0.1 μg/mL, 1 μg/mL, 10 μg/mL) to the experimental groups, wherein each concentration corresponded to four wells, and the volume of each well was made up to 200 μL; after adding samples, continue to culture for 72 h for each group (for hypoxic groups, continue to culture for 72 h at 5% CO2, 95% N2), add ^3H-TdR 3×10^5Bq to each group before culture ended, and measure the CPM (count per minute) value of each well with Top-count; and calculate the median inhibition concentration (IC50) of drugs in each experimental group on cell proliferation.

For data set [3], the system named is Human lung adenocarcinoma cell A549. The description is as above. Type of data set: cell-based. To be noted: A549, 72 h. The method, then:
as §1

Data set [4] concerns subcutaneous transplantation tumor of human BxPC-3. Nature of the data set: Growth inhibition of subcutaneous transplantation tumor of human BxPC-3 in nude mice, with animal weight. Format: in vivo. To be noted: high-dose group, 4 times of the effective dose (0.4 mmol/kg); FIG. 3. The method, then: Take BxPC-3 human pancreatic cancer cells in the logarithmic growth phase, inoculate subcutaneously on the back of nude mice at a concentration of 5×10^6 cells·0.2 mL^−1·mouse^−1, three weeks later, after the long diameters of the transplanted tumors in nude mice were all ≥5 mm, calculate the similar volume of tumor bodies based on the long diameter and short diameter of the transplanted tumors. Nude mice were divided into 5 groups by a random block design and allocation method according to the tumor volume.
Administration scheme: 50 model animals were randomly divided into a negative control group, a low-dose group (compound 001, 0.1 mmol/kg), a high-dose group (compound 001, 0.4 mmol/kg), a gemcitabine hydrochloride group (0.2 mmol/kg), and a combined administration group (compound 001, 0.1 mmol/kg+ gemcitabine hydrochloride, 0.1 mmol/kg), intraperitoneally injected (twice per week) for 3 weeks, and killed one week after drug withdrawal. At the same time, animal weight was measured and the eye condition of the animal was observed.

The next data set concerns tumor cells. Nature of the data set: In-vitro inhibition of tumor cell proliferation, hypoxic versus normal oxygen. Type of data set: cell-based. To be noted: in words, see Table 1. The method, then: as §1
[5] abbreviates: hypoxic (5% CO2, 95% N2), read-out: Median inhibition concentration IC50 hypoxic (nitrogen).
Setting [6] is: normal oxygen (air), read-out: Median inhibition concentration IC50 normal oxygen (air).

Structures are written as SMILES. Values after ≈ are worked out from the molar mass of the structure shown. “Also recorded” adds a separate entry of the source. Like-named read-outs stand apart in the source and are kept apart here.

As for `CC(OC(=O)[C@H](C)NP(=O)(OC[C@H]1O[C@@H](n2ccc(N)nc2=O)C(F)(F)C1O)Oc1ccccc1)c1ccc([N+](=O)[O-])cc1` (some centres unmarked) [Compound 001], the IC50 in data set [1] (setting [5]) was 0.2 µg/mL (≈ 0.313 µM); in data set [1] (setting [6]), above 10 µg/mL; in data set [2] (setting [5]), 0.3 µg/mL (≈ 0.469 µM); in data set [2] (setting [6]), above 10 µg/mL; in data set [3] (setting [5]) it was 0.05 µg/mL (≈ 0.0782 µM); in data set [3] (setting [6]) it was 1 µg/mL (≈ 1.56 µM). The Animal weight result in data set [4] was “no significant difference in animal weight; also recorded: not significantly different from that of the low-dose group and a positive control drug gemcitabine group”.

Take `C[C@H](NP(=O)(OC[C@H]1O[C@@H](n2ccc(N)nc2=O)C(F)(F)[C@@H]1O)Oc1ccccc1)C(=O)OCc1ccccc1` (some centres unmarked) [NUC-1031, reference compound]: the IC50 worked out at 0.1 µg/mL (≈ 0.172 µM) in data set [1] (setting [5]); 0.1 µg/mL (≈ 0.172 µM) in data set [1] (setting [6]); 0.2 µg/mL (≈ 0.345 µM) in data set [2] (setting [5]); 0.2 µg/mL (≈ 0.345 µM) in data set [2] (setting [6]); 0.01 µg/mL (≈ 0.0172 µM) in data set [3] (setting [5]); 0.01 µg/mL (≈ 0.0172 µM) in data set [3] (setting [6]). Besides, the “Cytotoxicity under a hypoxic condition compared with that under a normal oxygen condition” value in the data set with tumor cells is reported as “no significant difference”.

The values are drawn from US10709725B2, “Gemcitabine ProTide hypoxia-activated prodrug and application thereof” (JIANGSU QIANZHIKANG BIOLOGICAL MEDICINE SCIENCE AND …, priority 2016, dated 2020).
